Measured values: the supplement of paper PMC11451515

Tested on: P12-Ichikawa
Assay: cell viability relative to DMSO control; higher = less cytotoxic
Settings: 48 h
Method in brief: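 Viability values are per-plate percentages of DMSO wells, with background from cell-free wells. Library compounds in DMSO were pin-dosed, in an 11-point threefold series from 47 μM to 0.79 nM, onto NOMO1 or SEM (500 cells/well) or P12-Ichikawa (1000 cells/well) leukemia cells in 1536-well plates (5 μl). Those cells had been adapted for at least four passages in each medium, and CellTiter-Glo One luminescence was read after 48 h at 37°C.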

[1] = HPLM + 10% dialyzed FBS, 0.000781 µM
[2] = HPLM + 10% dialyzed FBS, 0.00234 µM
[3] = HPLM + 10% dialyzed FBS, 0.00702 µM
[4] = HPLM + 10% dialyzed FBS, 0.0211 µM
[5] = HPLM + 10% dialyzed FBS, 0.0632 µM
[6] = HPLM + 10% dialyzed FBS, 0.19 µM
[7] = HPLM + 10% dialyzed FBS, 0.569 µM
[8] = HPLM + 10% dialyzed FBS, 1.71 µM
[9] = HPLM + 10% dialyzed FBS, 5.12 µM
[10] = HPLM + 10% dialyzed FBS, 15.4 µM
[11] = HPLM + 10% dialyzed FBS, 46.1 µM
[12] = RPMI 5 mM glucose + 10% FBS, 0.000781 µM
[13] = RPMI 5 mM glucose + 10% FBS, 0.00234 µM
[14] = RPMI 5 mM glucose + 10% FBS, 0.00702 µM
[15] = RPMI 5 mM glucose + 10% FBS, 0.0211 µM
[16] = RPMI 5 mM glucose + 10% FBS, 0.0632 µM
[17] = RPMI 5 mM glucose + 10% FBS, 0.19 µM
[18] = RPMI 5 mM glucose + 10% FBS, 0.569 µM
[19] = RPMI 5 mM glucose + 10% FBS, 1.71 µM
[20] = RPMI 5 mM glucose + 10% FBS, 5.12 µM
[21] = RPMI 5 mM glucose + 10% FBS, 15.4 µM
[22] = RPMI 5 mM glucose + 10% FBS, 46.1 µM
[23] = RPMI 5 mM glucose + 10% dialyzed FBS, 0.000781 µM
[24] = RPMI 5 mM glucose + 10% dialyzed FBS, 0.00234 µM
[25] = RPMI 5 mM glucose + 10% dialyzed FBS, 0.00702 µM
[26] = RPMI 5 mM glucose + 10% dialyzed FBS, 0.0211 µM
[27] = RPMI 5 mM glucose + 10% dialyzed FBS, 0.0632 µM
[28] = RPMI 5 mM glucose + 10% dialyzed FBS, 0.19 µM
[29] = RPMI 5 mM glucose + 10% dialyzed FBS, 0.569 µM
[30] = RPMI 5 mM glucose + 10% dialyzed FBS, 1.71 µM
[31] = RPMI 5 mM glucose + 10% dialyzed FBS, 5.12 µM
[32] = RPMI 5 mM glucose + 10% dialyzed FBS, 15.4 µM
[33] = RPMI 5 mM glucose + 10% dialyzed FBS, 46.1 µM

SMILES	cell viability [1] [%]	cell viability [2] [%]	cell viability [3] [%]	cell viability [4] [%]	cell viability [5] [%]	cell viability [6] [%]	cell viability [7] [%]	cell viability [8] [%]	cell viability [9] [%]	cell viability [10] [%]	cell viability [11] [%]	cell viability [12] [%]	cell viability [13] [%]	cell viability [14] [%]	cell viability [15] [%]	cell viability [16] [%]	cell viability [17] [%]	cell viability [18] [%]	cell viability [19] [%]	cell viability [20] [%]	cell viability [21] [%]	cell viability [22] [%]	cell viability [23] [%]	cell viability [24] [%]	cell viability [25] [%]	cell viability [26] [%]	cell viability [27] [%]	cell viability [28] [%]	cell viability [29] [%]	cell viability [30] [%]	cell viability [31] [%]	cell viability [32] [%]	cell viability [33] [%]
C[C@]12CC[C@@H]3c4ccc(O)cc4CC[C@H]3[C@@H]1[C@@H](O)[C@@H](O)[C@@H]2O	119	117	119	112	120	124	122	120	119	125	124	105	113	109	104	123	118	122	121	126	131	113	111	120	118	115	120	127	127	133	127	129	135
C[C@]12CCC(=O)C=C1CC[C@@H]1[C@@H]2[C@@H](O)C[C@@]2(C)[C@H]1CC[C@]2(O)C(=O)CO	107	106	105	107	111	111	115	94.1	89.7	88.9	84.4	104	103	103	115	113	109	104	83.2	78.4	70.9	69.2	104	115	107	119	112	114	100	78.5	78.3	65.4	64.2
C[C@H](NC(=O)c1sccc1OCc1ccc(Cl)cc1)c1ccccc1	97.3	87.7	88.8	83.9	84.4	78	86.3	87.2	81.2	86.2	82.7	84.7	84.5	80.8	85.2	92	86.4	81	85	74.5	83.5	78	84.6	90	91.9	88.3	88.4	83.2	91.1	77.1	74.5	82.1	86
CNCCCC12CCC(c3ccccc31)c1ccccc12	93.5	95.7	96.7	95.5	103	96.2	95.8	92.7	87.8	85.8	63.5	94.1	99.5	102	103	104	95.9	91.8	90.2	84.4	76.6	62.6	93	98.2	96.6	101	98.3	88.7	97.7	85.7	86.5	73.1	54.8
CC(C)CNc1ccnc(NCc2csc(-c3ccccc3)n2)n1	110	123	128	132	130	132	127	115	101	96.3	63.6	–	–	–	–	–	–	–	–	–	–	–	–	–	–	–	–	–	–	–	–	–	–
Cc1nc2cnc3ccc(C#Cc4cccnc4)cc3c2n1-c1ccc(C(C)(C)C#N)cc1	84.7	89.5	86.4	87.4	63.2	56	58.4	53.7	54.2	54.4	41	65.6	84.1	78.1	88.3	49.1	43.5	33.5	43.7	36.5	40.6	19.9	71.8	80.4	77	89.2	53.6	49.6	36.4	36.6	33.7	37.6	24.2
CC(C)c1noc(N2CCC(COc3ccc(-c4ccc([S+](C)(=O)[O-])cc4)nc3)CC2)n1	117	117	113	120	122	114	112	106	103	98.7	103	118	120	119	112	119	109	110	118	111	113	101	117	105	120	108	114	110	106	110	100	112	97.4
O=C(C=CC#Cc1cccc(N[S+](=O)([O-])c2ccccc2)c1)NO	110	113	118	116	119	114	103	92.7	3.67	3.02	3	113	119	116	123	117	116	122	75.6	6.32	3.14	2.9	113	114	117	121	117	117	113	80.4	3.83	2.6	2.95
COc1cc(OC2CCN(C)CC2)ccc1Nc1ncc2c(n1)n(C1CCCC1)c(=O)n2C	83.2	85.4	83	91.2	91.6	97.9	88.5	92.8	99.6	86.2	2.55	74.9	93.8	82.7	88.2	85.8	81.4	91.6	81.3	87.2	69.9	5.17	76.7	80.6	76.3	85.5	86.1	80.4	86.5	83	85.6	61.4	0.821
Cc1c(C)n(Cc2ccc(-c3ccccc3C(=O)O)cc2)c2ccc(C(=O)N[C@@H](C)c3ccc([N+](=O)[O-])cc3)cc12	103	105	102	107	103	109	109	120	114	25.8	33.6	101	104	102	96.8	112	110	114	102	113	25.2	25.1	99.6	97.5	106	105	106	101	113	108	114	25.5	20
O=C(Nc1cc(Cl)cc2c1[nH]c1cnccc12)c1cccnc1	116	121	123	121	121	122	127	115	121	113	106	124	118	118	129	119	116	117	118	114	114	109	–	–	–	–	–	–	–	–	–	–	–
CNC(=O)c1ccc2cc(C3(O)CCn4cncc43)ccc2c1 (centres undefined)	123	127	115	115	119	123	102	102	108	108	114	123	127	119	127	131	125	129	122	111	133	110	126	117	121	125	118	120	110	117	107	118	105
C[S+](=O)([O-])Nc1ccc([N+](=O)[O-])cc1Oc1ccccc1	114	115	111	120	112	115	118	109	109	102	59.4	122	121	120	119	120	122	116	111	116	112	28.5	110	108	114	113	121	110	117	103	106	103	48.7
O=C1c2ccccc2-[n+]2ccc3c([nH]c4ccccc43)c21	101	108	112	105	105	106	101	105	95.4	2.96	3.56	98.1	106	105	114	104	107	107	112	101	2.99	2.29	102	115	111	108	107	111	100	113	107	3.39	2.85
